US12187681B2 (Shanghai East Hospital, priority 2019, dated 2025)
Structures can show the parent of a compound that is named as a salt.

Tests used:
[1] = biological target: T1, CaV1.2 (L-type voltage-dependent calcium channel; CACNA1C, CACNB2, CACNA2D1) (Homo sapiens, UniProt Q13936); assay: CaV1.2 channel whole-cell patch clamp (Ion Channel Activity Measurement); assay type: cell-based; details: human, room temperature; for inhibition at 5 min, 1 μM: pH 7.4, 1 μM test article; for inhibition at 5 min, 10 μM: pH 7.4, 10 μM test article, read-out: CaV 1.2 10 μM (ion-channel inhibition)
T1 construct: expressed in transfected cells; host or cells: CHO
Method: • CHO cell line stably expressing human calcium channel, voltage-dependent, L type, • CACNA1C: cDNA strictly similar to GenBank accession number: NM_000719 • CACNB2: cDNA strictly similar to GenBank accession number: NM_000724 • CACNA2D1: cDNA strictly similar to GenBank accession number: NM_000722 Iks Channel Cell Line:
(§1) Cells expressing channels were cultured in medium supplemented with 20% FBS in HAM'S F12 culture dish. Cells grew in a humidified incubator at 37° C. under 5% carbon dioxide. To passage cells, remove poor medium and rinse the cells once with PBS 1X. […] Place plate on a 37° C. warming incubator 5 min. As soon as cells are detached, add 5 ml of 37° C. complete medium. Draw cell suspension into a sterile pipet and homogenize cells gently to dissociate cells aggregates. Amplify or maintain the cells by seeding 2.5*105 cells in a 6 cm dish (final volume: 5 ml). To maintain electrophysiological performances, cell density must not exceed 80%. On the day before patch clamp experiment, 3*103 cells were seeded on coverslips in the 24-well plate and incubated at 37° C. in 5% carbon dioxide.
Bath solution: 140 mM TEA-C1, 2 mM MgCl2·6H2O, 10 mM CaCl2, 10 mM HEPES, 5 mM D-glucose, pH=7.4 with TEA-OH. Pipette solution: 120 mM CsCl, 1 mM MgCl2·6H2O, 10 mM HEPES, 10 mM EGTA, 0.3 mM Na2-GTP, 4 mM Mg-ATP, pH=7.2 with CsOH.
(§2) Glass pipette (BF150-86-10, Sutter Instruments) was made by puller (P97, Sutter Instruments). The glass pipette was manipulated using Micro-manipulator (Carm-C-S, MCI Instruments) under the microscope (AE31EF-INV, Motic). After touching the cell, a slight suction was applied to achieve high seal (GΩ). Fast capacitance (in pF) compensation was made after high seal was achieved; after achieving high seal, the membrane was broken, Cell capacitance (in pF) compensation was made from whole-cell capacitance compensation after the whole cell mode was achieved. No leak subtraction was made.
(§3) Cell was incubated with the test article for 5 minutes, or until the current reached a steady-state level. Multiple concentrations of test article were tested. The test articles were applied gradually from low to high concentration. The test and control solutions were flown into a recording chamber mounted on the stage of an inverted microscope via a gravity-fed solution delivery system. During the experiment, solutions were withdrawn from the recording chamber by vacuum aspiration. Each concentration was tested at multiple times. Each cell acted as its own control. All tests were performed at room temperature (23-25° C.).
Cav1.2 current was recorded under a holding potential at −80 mV and then depolarized to +10 mV for 0.3 seconds. This protocol was repeated at 20 s intervals to observe the effect of test articles on the peak of Cav1.2 current.

[2] = biological target: T2, hERG (human ether-a-go-go related gene potassium channel, KCNH2) (Homo sapiens, UniProt Q12809); assay: hERG channel whole-cell patch clamp (Ion Channel Activity Measurement); assay type: cell-based; details: human, room temperature; for inhibition at 1 μM: pH 7.4, 1 μM test article; for inhibition at 10 μM: pH 7.4, 10 μM test article
T2 construct: expressed in transfected cells; host or cells: HEK293
Method: HEK293 cell line expressing the human ERG (ether-a-go-go related gene) potassium channel (Potassium voltage-gated channel subfamily H member 2). cDNA strictly similar to GenBank accession number: NM_000238
as §1, §2, §3
hERG current was recorded under a holding potential at −80 mV and then depolarized to 30 mV for 2.5 seconds to activate the hERG channel. The peak tail currents were induced by a repolarizing pulse to −50 mV for 4 seconds. This voltage-clamp pulse protocol was performed continuously during the experiment. An interpulse interval of 10 seconds allowed recovery from inactivation. An interpulse of −50 mV test for 0.5 second before 30 mV depolarized step was included for leak current correction

[3] = HEK293 cells expressing the human ERG potassium channel

T1 sequence (Q13936 1-2138 isoform Q13936-12): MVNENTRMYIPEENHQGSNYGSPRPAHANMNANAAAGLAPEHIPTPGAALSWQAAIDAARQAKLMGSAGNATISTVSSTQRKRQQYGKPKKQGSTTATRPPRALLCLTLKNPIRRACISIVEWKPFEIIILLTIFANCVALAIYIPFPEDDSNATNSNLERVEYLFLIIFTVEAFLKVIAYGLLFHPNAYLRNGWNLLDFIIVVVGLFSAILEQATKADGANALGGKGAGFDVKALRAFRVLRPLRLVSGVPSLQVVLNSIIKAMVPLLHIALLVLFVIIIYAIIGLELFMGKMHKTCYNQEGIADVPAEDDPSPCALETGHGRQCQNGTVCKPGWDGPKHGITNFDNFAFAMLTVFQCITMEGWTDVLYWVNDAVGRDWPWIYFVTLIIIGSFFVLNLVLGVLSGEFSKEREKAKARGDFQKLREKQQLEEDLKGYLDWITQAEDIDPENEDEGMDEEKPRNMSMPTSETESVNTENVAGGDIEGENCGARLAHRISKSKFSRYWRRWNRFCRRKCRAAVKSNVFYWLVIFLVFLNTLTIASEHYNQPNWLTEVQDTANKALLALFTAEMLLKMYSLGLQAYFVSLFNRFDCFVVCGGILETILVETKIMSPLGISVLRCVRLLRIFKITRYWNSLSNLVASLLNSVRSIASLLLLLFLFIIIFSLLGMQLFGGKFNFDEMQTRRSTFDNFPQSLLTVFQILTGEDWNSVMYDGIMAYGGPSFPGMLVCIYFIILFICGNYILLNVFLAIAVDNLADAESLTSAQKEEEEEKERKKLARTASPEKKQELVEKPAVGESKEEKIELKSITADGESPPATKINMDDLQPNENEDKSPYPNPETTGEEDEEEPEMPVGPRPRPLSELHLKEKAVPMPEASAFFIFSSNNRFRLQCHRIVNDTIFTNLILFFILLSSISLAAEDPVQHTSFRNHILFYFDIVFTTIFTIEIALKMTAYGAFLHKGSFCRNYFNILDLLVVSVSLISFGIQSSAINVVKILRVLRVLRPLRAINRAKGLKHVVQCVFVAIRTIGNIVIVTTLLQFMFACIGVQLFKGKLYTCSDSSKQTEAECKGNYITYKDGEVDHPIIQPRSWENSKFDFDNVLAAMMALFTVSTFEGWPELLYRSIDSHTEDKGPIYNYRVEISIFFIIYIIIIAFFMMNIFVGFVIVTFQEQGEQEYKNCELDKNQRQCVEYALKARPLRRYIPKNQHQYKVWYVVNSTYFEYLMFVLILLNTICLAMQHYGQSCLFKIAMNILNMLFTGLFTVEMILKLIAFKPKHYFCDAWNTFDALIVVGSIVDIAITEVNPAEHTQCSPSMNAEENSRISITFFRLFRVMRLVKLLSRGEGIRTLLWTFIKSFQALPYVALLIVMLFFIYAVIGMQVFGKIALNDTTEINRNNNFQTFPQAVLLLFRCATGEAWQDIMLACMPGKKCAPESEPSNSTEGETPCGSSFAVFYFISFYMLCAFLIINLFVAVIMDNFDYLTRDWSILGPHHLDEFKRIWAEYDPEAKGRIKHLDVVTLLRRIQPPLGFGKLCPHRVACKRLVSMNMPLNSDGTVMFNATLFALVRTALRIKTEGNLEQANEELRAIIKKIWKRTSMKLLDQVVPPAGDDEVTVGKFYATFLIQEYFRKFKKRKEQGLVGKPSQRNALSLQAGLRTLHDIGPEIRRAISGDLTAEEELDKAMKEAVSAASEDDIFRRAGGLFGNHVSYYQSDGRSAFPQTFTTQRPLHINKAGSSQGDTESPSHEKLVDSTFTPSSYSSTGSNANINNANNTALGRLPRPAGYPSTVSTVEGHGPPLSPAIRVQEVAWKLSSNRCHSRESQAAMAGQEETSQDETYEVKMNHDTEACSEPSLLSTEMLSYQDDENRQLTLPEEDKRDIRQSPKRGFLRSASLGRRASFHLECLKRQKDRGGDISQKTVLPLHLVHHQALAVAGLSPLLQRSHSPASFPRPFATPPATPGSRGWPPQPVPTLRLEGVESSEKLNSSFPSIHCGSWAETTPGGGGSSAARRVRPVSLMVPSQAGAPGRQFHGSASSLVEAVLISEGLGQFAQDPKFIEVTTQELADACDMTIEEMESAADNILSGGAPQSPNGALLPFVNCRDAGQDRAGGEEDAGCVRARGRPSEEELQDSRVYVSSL
T1 sequence (Q08289 1-605 isoform Q08289-2 partner): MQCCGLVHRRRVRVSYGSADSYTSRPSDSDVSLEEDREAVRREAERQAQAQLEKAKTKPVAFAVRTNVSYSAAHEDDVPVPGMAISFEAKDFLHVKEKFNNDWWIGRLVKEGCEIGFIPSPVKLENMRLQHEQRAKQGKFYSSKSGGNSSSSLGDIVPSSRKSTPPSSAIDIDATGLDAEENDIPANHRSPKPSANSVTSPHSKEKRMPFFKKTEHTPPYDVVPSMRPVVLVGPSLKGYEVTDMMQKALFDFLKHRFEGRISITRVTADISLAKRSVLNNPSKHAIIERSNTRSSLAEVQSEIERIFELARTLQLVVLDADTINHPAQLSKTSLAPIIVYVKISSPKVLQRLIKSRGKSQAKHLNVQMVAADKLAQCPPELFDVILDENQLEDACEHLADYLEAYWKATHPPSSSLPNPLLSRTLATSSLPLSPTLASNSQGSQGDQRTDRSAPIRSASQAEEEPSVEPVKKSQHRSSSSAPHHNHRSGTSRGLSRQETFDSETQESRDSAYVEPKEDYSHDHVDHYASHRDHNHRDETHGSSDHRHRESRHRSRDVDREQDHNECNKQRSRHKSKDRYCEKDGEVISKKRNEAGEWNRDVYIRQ
T1 sequence (P54289 25-1091 isoform P54289-2 partner limits assumed): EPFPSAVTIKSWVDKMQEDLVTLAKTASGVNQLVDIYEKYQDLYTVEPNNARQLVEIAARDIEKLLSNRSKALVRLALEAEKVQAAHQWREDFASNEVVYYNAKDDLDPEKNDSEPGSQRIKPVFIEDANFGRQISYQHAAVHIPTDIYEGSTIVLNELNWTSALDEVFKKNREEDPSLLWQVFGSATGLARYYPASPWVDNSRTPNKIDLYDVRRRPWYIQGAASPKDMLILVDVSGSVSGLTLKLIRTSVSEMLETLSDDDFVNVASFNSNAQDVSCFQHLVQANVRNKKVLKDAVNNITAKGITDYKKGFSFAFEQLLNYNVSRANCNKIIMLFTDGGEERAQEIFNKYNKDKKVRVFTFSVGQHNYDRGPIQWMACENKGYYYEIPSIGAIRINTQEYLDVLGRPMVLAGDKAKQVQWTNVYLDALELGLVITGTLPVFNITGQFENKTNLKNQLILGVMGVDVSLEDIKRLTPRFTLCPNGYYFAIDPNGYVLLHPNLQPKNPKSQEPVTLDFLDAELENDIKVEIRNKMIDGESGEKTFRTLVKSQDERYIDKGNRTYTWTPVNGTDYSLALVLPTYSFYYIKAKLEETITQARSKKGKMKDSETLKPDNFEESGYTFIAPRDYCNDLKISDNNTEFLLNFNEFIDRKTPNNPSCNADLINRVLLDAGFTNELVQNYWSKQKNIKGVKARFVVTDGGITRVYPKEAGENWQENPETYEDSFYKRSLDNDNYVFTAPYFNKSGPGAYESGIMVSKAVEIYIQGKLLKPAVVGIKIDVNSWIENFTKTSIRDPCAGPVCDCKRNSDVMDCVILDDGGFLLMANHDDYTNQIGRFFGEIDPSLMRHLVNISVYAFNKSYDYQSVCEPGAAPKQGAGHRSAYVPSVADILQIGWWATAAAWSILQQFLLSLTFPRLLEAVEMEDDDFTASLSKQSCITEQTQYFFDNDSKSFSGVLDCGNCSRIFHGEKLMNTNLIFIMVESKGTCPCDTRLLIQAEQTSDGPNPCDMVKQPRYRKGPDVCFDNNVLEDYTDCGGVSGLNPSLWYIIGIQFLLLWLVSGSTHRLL
T1 sequence (P54289 957-1103 partner limits assumed): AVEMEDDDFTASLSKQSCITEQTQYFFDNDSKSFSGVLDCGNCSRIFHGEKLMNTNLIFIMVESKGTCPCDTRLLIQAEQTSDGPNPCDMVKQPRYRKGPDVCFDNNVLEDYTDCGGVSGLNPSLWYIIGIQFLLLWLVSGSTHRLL
T2 sequence (Q12809 whole entry): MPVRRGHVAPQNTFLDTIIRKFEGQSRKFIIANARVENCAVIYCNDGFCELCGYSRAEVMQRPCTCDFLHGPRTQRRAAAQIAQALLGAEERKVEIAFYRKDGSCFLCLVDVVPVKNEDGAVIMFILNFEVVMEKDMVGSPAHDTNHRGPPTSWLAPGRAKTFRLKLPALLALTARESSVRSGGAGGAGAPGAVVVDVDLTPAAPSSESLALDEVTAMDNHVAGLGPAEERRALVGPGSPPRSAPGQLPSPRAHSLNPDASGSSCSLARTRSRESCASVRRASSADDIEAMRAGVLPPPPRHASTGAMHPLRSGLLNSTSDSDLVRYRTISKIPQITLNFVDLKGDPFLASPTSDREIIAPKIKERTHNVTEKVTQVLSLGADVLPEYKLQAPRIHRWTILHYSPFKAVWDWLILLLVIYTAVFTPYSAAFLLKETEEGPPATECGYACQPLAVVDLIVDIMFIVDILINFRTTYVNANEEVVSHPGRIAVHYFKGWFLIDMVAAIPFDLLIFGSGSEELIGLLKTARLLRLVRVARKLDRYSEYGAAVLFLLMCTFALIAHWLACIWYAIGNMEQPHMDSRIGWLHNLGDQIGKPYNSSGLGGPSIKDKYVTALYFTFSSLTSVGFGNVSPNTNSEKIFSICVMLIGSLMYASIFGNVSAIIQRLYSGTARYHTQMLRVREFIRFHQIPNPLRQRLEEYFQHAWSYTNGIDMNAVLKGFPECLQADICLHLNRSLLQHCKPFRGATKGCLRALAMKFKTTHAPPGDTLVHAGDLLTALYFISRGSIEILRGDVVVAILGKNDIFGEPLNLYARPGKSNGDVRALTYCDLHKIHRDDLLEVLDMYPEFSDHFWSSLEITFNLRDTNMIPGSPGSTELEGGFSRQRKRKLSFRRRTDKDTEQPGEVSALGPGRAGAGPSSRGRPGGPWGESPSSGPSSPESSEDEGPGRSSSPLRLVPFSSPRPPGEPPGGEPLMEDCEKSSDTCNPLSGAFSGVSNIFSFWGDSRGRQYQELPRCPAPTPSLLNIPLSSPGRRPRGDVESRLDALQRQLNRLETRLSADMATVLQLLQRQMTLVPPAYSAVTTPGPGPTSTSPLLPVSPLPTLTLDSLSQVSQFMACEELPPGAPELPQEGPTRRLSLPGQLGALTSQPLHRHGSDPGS

SMILES | inhibition at 5 min, 1 μM [1] | inhibition at 5 min, 10 μM [1] | inhibition at 1 μM [2, 3] | inhibition at 10 μM [2, 3] | inhibition at 1 μM [2] | inhibition at 10 μM [2]
CCOCOc1ccc2ccccc2c1Cc1c(OCC2CCNCC2)ccc2ccccc12 [Compound A279, 4-(((1-((2-(ethoxymethoxy)naphthalen-1-yl)methyl)naphthalen-2-yl)oxy)methyl)piperidine] | < 25% | 75 to 100% | 75 to 100% | 75 to 100% |  | 
CCN(CC)CC(=O)Nc1ccc2ccccc2c1Cc1c(OC)ccc2ccccc12 [Compound A284, 2-(diethylamino)-N-(1-((2-methoxynaphthalen-1-yl)methyl)naphthalen-2-yl)acetamide] | < 25% | < 25% | 25 to 50% |  |  | 
Oc1cccc2c1C(c1c(O)ccc3ccccc13)CC2 (stereo not shown) [Compound A079, 1-(7-hydroxy-2,3-dihydro-1H-inden-1-yl)naphthalen-2-ol] | < 25% | 50 to 75% | < 25% | 75 to 100% |  | 
CC(=O)N(c1c(O)ccc2ccccc12)c1c(O)ccc2ccccc12 [Compound A075, N,N-bis(2-hydroxynaphthalen-1-yl)acetamide] | < 25% | < 25% | < 25% | < 25% |  | 
COc1cccc(-c2ccncc2)c1Cc1c(O)cccc1-c1ccncc1 [Compound A118-I-1, 2-(2-methoxy-6-(pyridin-4-yl)benzyl)-3-(pyridin-4-yl)phenol] | < 25% | < 25% | < 25% | 25 to 50% |  | 
CCN(CC)CCOc1c(C(C)C)cc2ccccc2c1Cc1c(O)c(C(C)C)cc2ccccc12 [Compound A102, 1-((2-(2-(diethylamino)ethoxy)-3-isopropylnaphthalen-1-yl)methyl)-3-isopropylnaphthalen-2-ol hydrochloride Salt] | < 25% | 75 to 100% | 50 to 75% | 75 to 100% |  | 
Oc1ccc2ccccc2c1Cn1nc(-c2ccccc2)cc1O [Compound A059] | < 25% | < 25% |  |  | < 25% | < 25%
CC(C)(O)c1cc2ccccc2c(Cc2c(O)c(C(C)(C)O)cc3ccccc23)c1O [Compound A047, 1,1′-methylenebis(3-(2-hydroxypropan-2-yl)naphthalen-2-ol)] | < 25% | 50 to 75% | < 25% |  |  | 
Oc1cccc2c1C(c1c(O)ccc3c1CCCC3)CCC2 (stereo not shown) [Compound A077-2, 1′,2′,3′,4′,5,6,7,8-octahydro-[1,1′-binaphthalene]-2,8′-diol] | < 25% | < 25% | < 25% | 50 to 75% |  | 
NC(=O)c1ccc2c(Cc3c(O)ccc4ccccc34)c(O)ccc2c1 [Compound A122, 6-hydroxy-5-((2-hydroxynaphthalen-1-yl)methyl)-2-naphthamide] | < 25% | 75 to 100% | 25 to 50% | 75 to 100% |  | 
O=C(O)c1ccc2ccccc2c1Cc1c(O)ccc2ccccc12 [Compound A106, 1-((2-hydroxynaphthalen-1-yl)methyl)-2-naphthoic acid] | < 25% | < 25% | < 25% | < 25% |  | 
CN1CCC(COc2ccc3ccccc3c2Cc2c(O)ccc3ccccc23)C1 (stereo not shown) [Compound A262, 1-((2-((1-methylpyrrolidin-3-yl)methoxy)naphthalen-1-yl)methyl)naphthalen-2-ol] | < 25% | 75 to 100% | 75 to 100% | 75 to 100% |  | 
O=C(c1c(O)ccc2ccccc12)c1c(O)ccc2ccccc12 [Compound A007, bis(2-hydroxynaphthalen-1-yl)methanone] | < 25% | 50 to 75% | < 25% | 25 to 50% |  | 
CCOCOc1cccc2c1C(=O)CCC2 [Compound A076, 8-(ethoxymethoxy)-3,4-dihydronaphthalen-1(2H)-one] | < 25% | 25 to 50% | < 25% | 50 to 75% |  | 
CCN(CC)CCOc1ccc2ccccc2c1Cc1c(OCc2ccccc2)ccc2ccccc12 [Compound A290, 2-((1-((2-(benzyloxy)naphthalen-1-yl)methyl)naphthalen-2-yl)oxy)-N,N-diethylethan-1-amine] | 25 to 50% | 50 to 75% | 75 to 100% | 75 to 100% |  | 
COc1cc2ccccc2c(Cc2c(O)c(OC)cc3ccccc23)c1O [Compound A050, 1,1′-methylenebis(3-methoxynaphthalen-2-ol)] | < 25% | < 25% | < 25% | < 25% |  | 
CCN(CC)CCOc1ccc2nccnc2c1Cc1c(O)ccc2ccccc12 [Compound A168, 1-((6-(2-(diethylamino)ethoxy)quinoxalin-5-yl)methyl)naphthalen-2-ol] | < 25% | < 25% | < 25% | < 25% |  | 
CC(C)c1cc2ccccc2c(Cc2c(O)c(C(C)C)cc3ccccc23)c1O [Compound A081, 1,1′-methylenebis(3-isopropylnaphthalen-2-ol)] | < 25% | 25 to 50% | < 25% | 50 to 75% |  | 
CCOCOc1ccc2ccccc2c1Cc1c(OCCN2CCCC2)ccc2ccccc12 [Compound A254, 1-(2-((1-((2-(ethoxymethoxy)naphthalen-1-yl)methyl)naphthalen-2-yl)oxy)ethyl)pyrrolidine] | < 25% | 50 to 75% | < 25% | 75 to 100% |  | 
CCOc1ccc2ccccc2c1Cc1c(OCCN2CCCC2)ccc2ccccc12 [Compound A255, 1-(2-((1-((2-ethoxynaphthalen-1-yl)methyl)naphthalen-2-yl)oxy)ethyl)pyrrolidine] | < 25% | 75 to 100% | 75 to 100% | 75 to 100% |  | 
CS(=O)(=O)Nc1ccc2ccccc2c1Cc1c(NS(C)(=O)=O)ccc2ccccc12 [Compound A024, N,N′-(methylenebis(naphthalene-1,2-diyl))dimethanesulfonamide] | < 25% | < 25% |  |  |  | 
CCN(CC)CCOc1ccc2ccccc2c1Cc1c(OCCN(CC)CC)ccc2ccccc12 [Compound A103, 2,2′-((methylenebis(naphthalene-1,2-diyl))bis(oxy))bis(N,N-diethylethan-1-amine) formic acid] | < 25% | < 25% |  |  |  | 
CS(=O)(=O)Nc1cc2ccccc2cc1Cc1c(NS(C)(=O)=O)ccc2ccccc12 [Compound A024-3, N-(3-((2-(methylsulfonamido)naphthalen-1-yl)methyl)naphthalen-2-yl)methanesulfonamide] | < 25% | 25 to 50% |  |  |  | 
CC(C)Oc1ccc2ccccc2c1Cc1c(OCCN)ccc2ccccc12 [Compound A246, 2-((1-((2-isopropoxynaphthalen-1-yl)methyl)naphthalen-2-yl)oxy)ethan-1-amine] |  |  | 25 to 50% |  |  | 
